Common to all, as to format: biochemical
One experiment has as its target T1, JAK3 (Homo sapiens, UniProt P52333).
T1 construct: purchased Invitrogen
T1 sequence (P52333 1-1124): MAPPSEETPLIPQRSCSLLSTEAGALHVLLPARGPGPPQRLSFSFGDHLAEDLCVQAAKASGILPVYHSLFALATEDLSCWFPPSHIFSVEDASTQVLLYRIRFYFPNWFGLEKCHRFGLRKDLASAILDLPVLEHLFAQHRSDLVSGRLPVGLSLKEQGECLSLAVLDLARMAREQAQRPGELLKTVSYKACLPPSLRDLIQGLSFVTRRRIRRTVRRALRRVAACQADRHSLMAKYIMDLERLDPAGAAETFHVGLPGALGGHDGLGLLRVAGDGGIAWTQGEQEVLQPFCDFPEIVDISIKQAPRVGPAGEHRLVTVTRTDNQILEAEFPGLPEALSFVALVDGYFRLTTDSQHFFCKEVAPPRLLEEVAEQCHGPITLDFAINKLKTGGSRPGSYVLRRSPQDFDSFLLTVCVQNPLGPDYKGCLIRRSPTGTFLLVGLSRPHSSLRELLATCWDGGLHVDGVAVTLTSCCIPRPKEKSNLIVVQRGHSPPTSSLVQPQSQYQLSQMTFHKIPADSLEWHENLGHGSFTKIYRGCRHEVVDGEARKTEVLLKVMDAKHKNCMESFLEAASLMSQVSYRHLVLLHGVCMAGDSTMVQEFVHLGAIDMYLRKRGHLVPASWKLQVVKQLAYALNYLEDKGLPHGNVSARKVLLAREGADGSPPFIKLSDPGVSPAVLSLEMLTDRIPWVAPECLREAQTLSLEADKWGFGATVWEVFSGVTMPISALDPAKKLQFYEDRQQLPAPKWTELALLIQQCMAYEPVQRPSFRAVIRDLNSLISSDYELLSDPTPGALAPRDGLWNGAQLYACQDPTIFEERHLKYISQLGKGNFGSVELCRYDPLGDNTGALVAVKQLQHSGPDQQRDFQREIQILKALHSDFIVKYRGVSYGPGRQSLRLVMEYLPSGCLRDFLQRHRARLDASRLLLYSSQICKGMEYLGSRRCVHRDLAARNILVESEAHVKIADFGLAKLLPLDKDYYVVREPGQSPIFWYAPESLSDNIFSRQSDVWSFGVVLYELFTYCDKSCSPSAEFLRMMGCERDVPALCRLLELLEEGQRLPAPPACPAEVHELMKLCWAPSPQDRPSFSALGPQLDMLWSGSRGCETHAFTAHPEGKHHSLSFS
The experiment is described as follows: JAK3 enzyme inhibition test (LANCE method). To be noted: 1 μM test compound; for inhibition at 1 µM: read-out: JAK3 enzyme inhibitory activity (%, 1 μM). The gist of the method: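 TR-FRET (LANCE) read: 1 h room-temperature reaction, EDTA quench, Eu-anti-phosphotyrosine antibody, emission 665 nm after 340 nm excitation. Added solutions held 12 ng/mL JAK3, 300 nM ULight-JAK1 substrate and 15 μM ATP (pH 7.5 HEPES). Activity expressed against no-enzyme wells defined as full inhibition.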
On the technique in general: In TR-FRET formats the signal depends on donor and acceptor labels being close together.

The next experiment concerns the target T2, JAK2 (Homo sapiens, UniProt O60674).
T2 construct: purchased Invitrogen
Put plainly: JAK2 enzyme inhibition test (LANCE method). The following applies: 1 μM test compound; for inhibition at 1 µM: read-out: JAK2 enzyme inhibitory activity (%, 1 μM). The gist of the method:
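TR-FRET (LANCE) read-out, ex 340/em 665 nm with 100 μs delay, after 1 hr room-temperature detection with europium anti-phosphotyrosine antibody and 20 mM EDTA. The preceding 1 hr kinase reaction combined JAK2, ULight-JAK1 substrate and ATP, added as 6 ng/mL, 300 nM and 45 μM solutions; enzyme-free wells defined 100% inhibition.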

The next experiment deals with T3, TYK2 (Homo sapiens, UniProt P29597).
T3 construct: purchased Invitrogen
T3 sequence (P29597 whole entry): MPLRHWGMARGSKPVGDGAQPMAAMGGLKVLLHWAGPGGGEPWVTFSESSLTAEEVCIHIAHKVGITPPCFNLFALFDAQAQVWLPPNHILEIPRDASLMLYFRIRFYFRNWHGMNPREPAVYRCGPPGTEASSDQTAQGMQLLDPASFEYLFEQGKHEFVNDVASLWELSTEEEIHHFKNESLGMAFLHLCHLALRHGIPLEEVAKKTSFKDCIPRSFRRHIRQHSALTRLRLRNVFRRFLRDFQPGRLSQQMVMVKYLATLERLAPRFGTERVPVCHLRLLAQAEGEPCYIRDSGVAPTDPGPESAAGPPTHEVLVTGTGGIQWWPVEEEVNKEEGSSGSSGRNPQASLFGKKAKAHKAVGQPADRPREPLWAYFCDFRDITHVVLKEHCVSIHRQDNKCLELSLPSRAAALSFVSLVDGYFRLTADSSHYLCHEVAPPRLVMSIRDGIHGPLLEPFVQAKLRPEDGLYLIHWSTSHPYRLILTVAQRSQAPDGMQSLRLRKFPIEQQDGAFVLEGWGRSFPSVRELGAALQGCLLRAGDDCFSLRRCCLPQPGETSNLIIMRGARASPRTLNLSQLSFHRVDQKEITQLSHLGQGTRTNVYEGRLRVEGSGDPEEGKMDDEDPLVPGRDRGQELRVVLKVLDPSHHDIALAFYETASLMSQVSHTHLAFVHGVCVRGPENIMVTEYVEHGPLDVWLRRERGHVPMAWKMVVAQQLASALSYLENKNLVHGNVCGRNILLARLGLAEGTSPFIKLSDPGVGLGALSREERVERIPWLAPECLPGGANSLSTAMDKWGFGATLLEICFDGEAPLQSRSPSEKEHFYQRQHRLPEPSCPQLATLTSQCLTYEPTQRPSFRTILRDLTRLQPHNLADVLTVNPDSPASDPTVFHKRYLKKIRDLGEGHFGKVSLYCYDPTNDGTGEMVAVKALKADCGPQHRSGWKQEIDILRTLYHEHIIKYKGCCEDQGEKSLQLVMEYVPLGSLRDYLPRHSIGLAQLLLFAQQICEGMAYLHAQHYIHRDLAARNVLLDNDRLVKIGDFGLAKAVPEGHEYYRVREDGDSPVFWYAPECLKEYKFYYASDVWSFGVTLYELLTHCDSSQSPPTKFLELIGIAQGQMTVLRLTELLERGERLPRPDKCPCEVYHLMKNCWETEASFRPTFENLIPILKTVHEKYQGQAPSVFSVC
The experiment is described as follows: TYK2 enzyme inhibition test (LANCE method). The following applies: 1 μM test compound; for inhibition at 1 µM: read-out: TYK2 enzyme inhibitory activity (%, 1 μM). The gist of the method:
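TR-FRET (LANCE) readout: after 1 h room-temperature kinase reaction, EDTA plus 4 nM Eu-labelled anti-phosphotyrosine antibody added, signal at 665 nm (340 nm excitation). Reaction combined TYK2, ULight-JAK1 substrate and ATP, prepared at 375 ng/mL, 300 nM and 30 μM before addition, in pH 7.5 HEPES/MgCl2 buffer; enzyme-free wells define full inhibition.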

Another experiment addresses T4, JAK1 (Homo sapiens, UniProt P23458).
T4 construct: purchased Invitrogen
The experiment is described as follows: JAK1 enzyme inhibition test (LANCE method). The following applies: 1 μM test compound; for inhibition at 1 µM: read-out: JAK1 enzyme inhibitory activity (%, 1 μM). The gist of the method: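 Inhibition expressed against no-enzyme wells (100% inhibition), from time-resolved fluorescence at 665 nm after Eu-anti-phosphotyrosine antibody/EDTA detection. Kinase reaction ran 1 h at room temperature, pH 7.5 HEPES buffer, ULight-JAK1 substrate and ATP diluted to 300 nM and 150 μM before addition.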

T2 sequence (O60674 whole entry): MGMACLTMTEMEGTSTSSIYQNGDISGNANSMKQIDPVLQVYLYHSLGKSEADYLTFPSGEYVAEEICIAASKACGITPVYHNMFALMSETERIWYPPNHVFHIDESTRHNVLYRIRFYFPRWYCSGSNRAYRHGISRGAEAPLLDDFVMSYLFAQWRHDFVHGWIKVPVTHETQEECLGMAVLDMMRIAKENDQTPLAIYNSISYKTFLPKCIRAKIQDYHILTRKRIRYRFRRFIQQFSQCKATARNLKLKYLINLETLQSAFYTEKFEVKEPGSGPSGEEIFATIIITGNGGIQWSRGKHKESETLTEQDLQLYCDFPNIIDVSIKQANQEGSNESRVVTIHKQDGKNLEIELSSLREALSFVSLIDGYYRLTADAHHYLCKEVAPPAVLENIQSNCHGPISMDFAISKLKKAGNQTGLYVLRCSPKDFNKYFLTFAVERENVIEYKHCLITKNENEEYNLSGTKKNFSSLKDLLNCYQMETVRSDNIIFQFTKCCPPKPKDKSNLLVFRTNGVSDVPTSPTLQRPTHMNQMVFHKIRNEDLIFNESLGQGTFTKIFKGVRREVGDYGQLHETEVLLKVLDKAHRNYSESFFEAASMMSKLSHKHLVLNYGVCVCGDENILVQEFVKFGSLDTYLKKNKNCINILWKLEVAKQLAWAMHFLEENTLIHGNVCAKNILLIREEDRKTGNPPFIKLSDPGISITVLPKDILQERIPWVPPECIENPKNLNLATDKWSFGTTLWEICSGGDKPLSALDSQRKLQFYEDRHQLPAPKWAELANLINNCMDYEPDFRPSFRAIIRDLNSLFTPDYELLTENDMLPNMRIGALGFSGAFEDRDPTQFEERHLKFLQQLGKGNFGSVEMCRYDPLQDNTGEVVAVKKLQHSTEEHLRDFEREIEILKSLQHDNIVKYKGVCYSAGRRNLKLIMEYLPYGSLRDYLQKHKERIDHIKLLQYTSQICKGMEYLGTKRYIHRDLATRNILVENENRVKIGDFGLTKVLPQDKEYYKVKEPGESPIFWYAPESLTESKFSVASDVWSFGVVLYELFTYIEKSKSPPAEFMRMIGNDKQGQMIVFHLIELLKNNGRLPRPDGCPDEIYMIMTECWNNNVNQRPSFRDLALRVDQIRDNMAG
T4 sequence (P23458 whole entry): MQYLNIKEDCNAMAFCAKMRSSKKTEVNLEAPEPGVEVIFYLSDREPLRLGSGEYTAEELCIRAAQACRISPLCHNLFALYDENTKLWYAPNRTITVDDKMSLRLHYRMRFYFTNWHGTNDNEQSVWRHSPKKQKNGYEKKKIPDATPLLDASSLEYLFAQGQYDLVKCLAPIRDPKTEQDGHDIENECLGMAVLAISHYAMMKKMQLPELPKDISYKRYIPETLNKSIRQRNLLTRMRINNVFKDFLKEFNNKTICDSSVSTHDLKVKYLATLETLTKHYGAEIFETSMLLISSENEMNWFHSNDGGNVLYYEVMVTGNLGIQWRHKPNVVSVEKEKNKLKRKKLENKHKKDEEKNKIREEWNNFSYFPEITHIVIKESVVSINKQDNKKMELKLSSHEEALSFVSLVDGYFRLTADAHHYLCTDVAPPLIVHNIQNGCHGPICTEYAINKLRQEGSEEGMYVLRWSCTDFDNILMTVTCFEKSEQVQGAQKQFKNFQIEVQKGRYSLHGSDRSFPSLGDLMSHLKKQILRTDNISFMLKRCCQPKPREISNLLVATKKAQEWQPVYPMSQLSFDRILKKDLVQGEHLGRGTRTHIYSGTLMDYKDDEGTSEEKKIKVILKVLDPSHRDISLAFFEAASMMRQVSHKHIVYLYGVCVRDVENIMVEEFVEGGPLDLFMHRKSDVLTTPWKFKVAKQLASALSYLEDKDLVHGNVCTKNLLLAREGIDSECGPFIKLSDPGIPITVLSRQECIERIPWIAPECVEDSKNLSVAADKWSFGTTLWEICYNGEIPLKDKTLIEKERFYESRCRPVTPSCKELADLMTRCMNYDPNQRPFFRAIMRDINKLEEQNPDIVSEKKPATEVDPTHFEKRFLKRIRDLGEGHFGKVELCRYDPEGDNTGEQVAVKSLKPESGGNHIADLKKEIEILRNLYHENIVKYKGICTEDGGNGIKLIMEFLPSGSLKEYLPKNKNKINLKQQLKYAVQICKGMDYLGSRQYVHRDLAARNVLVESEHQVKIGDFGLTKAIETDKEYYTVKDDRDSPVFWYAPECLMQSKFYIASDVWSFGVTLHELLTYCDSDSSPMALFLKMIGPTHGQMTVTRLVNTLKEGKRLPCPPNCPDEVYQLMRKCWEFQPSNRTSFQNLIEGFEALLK

Regarding `C[C@H](C1CC1)n1cc(-c2cc(N3CCC(C)(O)CC3)n(C)n2)c2[nH]nc(N)c2c1=O` [Example 133, 3-amino-5-((1R)-1-cyclopropylethyl)-7-(5-(4-hydroxy-4-methylpiperidin-1-yl)-1-methyl-1H-pyrazol-3-yl)-1,5-dihydro-4H-pyrazolo[4,3-c]pyridin-4-one], the inhibition at 1 µM came to 96% on JAK3, 87% at JAK2, 99% on TYK2 and 91% at JAK1.

As to `CC1CN(c2cc(-c3cn([C@@H](C)C(C)C)c(=O)c4c(N)n[nH]c34)nn2C)CCO1` (stereo partly drawn) [Example 60, 3-amino-5-((2S)-3-methylbutan-2-yl)-7-(1-methyl-5-(2-methylmorpholin-4-yl)-1H-pyrazol-3-yl)-1,5-dihydro-4H-pyrazolo[4,3-c]pyridin-4-one], the “JAK3 enzyme inhibitory activity (%, 1 μM)” value at JAK3 is 99%. In addition, the “JAK2 enzyme inhibitory activity (%, 1 μM)” value on JAK2 was 98%. The “TYK2 enzyme inhibitory activity (%, 1 μM)” value at TYK2 was found to be 99%. Further, on JAK1, the “JAK1 enzyme inhibitory activity (%, 1 μM)” value was determined as 96%.

`COC[C@H]1CCCN1c1cc(-c2cn(-c3c(F)cccc3F)c(=O)c3c(N)n[nH]c23)nn1C` [Example 128, 3-amino-5-(2,6-difluorophenyl)-7-(5-((2R)-2-(methoxymethyl)pyrrolidin-1-yl)-1-methyl-1H-pyrazol-3-yl)-1,5-dihydro-4H-pyrazolo[4,3-c]pyridin-4-one]: the inhibition at 1 µM at JAK3 was 99%; at JAK2 it was 98%; at TYK2, 100%; at JAK1 it was 98%.

For `CN(C)[C@@H]1CCN(c2cc(-c3cn(C(C4CC4)C4CC4)c(=O)c4c(N)n[nH]c34)nn2C)C1` [Example 156, 3-amino-5-(dicyclopropylmethyl)-7-(5-((3R)-3-(dimethylamino)pyrrolidin-1-yl)-1-methyl-1H-pyrazol-3-yl)-1,5-dihydro-4H-pyrazolo[4,3-c]pyridin-4-one], the inhibition at 1 µM at JAK3 was determined as 100%; at JAK2, 99%; on TYK2 it was 100%; at JAK1, 100%.

Consider `COC1(c2cc(-c3cn(-c4c(F)cccc4F)c(=O)c4c(N)n[nH]c34)nn2C)CN(C(C)=O)C1` [Example 131, 7-(5-(1-acetyl-3-methoxyazetidin-3-yl)-1-methyl-1H-pyrazol-3-yl)-3-amino-5-(2,6-difluorophenyl)-1,5-dihydro-4H-pyrazolo[4,3-c]pyridin-4-one], for which the inhibition at 1 µM on JAK3 came to 99%; at JAK2 it was 98%; at TYK2 it was 100%; at JAK1, 95%.

In the case of `Cn1nc(-c2cn(C(C3CC3)C3CC3)c(=O)c3c(N)n[nH]c23)cc1N1CCC[C@@H]1CN1CCCC1` [Example 158, 3-amino-5-(dicyclopropylmethyl)-7-(1-methyl-5-((2R)-2-(pyrrolidin-1-ylmethyl)pyrrolidin-1-yl)-1H-pyrazol-3-yl)-1,5-dihydro-4H-pyrazolo[4,3-c]pyridin-4-one], the inhibition at 1 µM worked out at 100% on JAK3, 99% at JAK2, 101% at TYK2 and 92% at JAK1.

In the case of `CC(C)[C@H](C)n1cc(-c2cc(N3CCC(F)(F)CC3)n(C)n2)c2[nH]nc(N)c2c1=O` [Example 16, 3-amino-7-(5-(4,4-difluoropiperidin-1-yl)-1-methyl-1H-pyrazol-3-yl)-5-((2S)-3-methylbutan-2-yl)-1,5-dihydro-4H-pyrazolo[4,3-c]pyridin-4-one], the inhibition at 1 µM on JAK3 amounted to 100%; at JAK2, 99%; on TYK2, 100%; on JAK1, 97%.

`CC(C1CC1)n1cc(-c2cc(N3CCOCC3)n(C)n2)c2[nH]nc(N)c2c1=O` (racemic) [Example 4, 3-amino-5-(1-cyclopropylethyl)-7-(1-methyl-5-(morpholin-4-yl)-1H-pyrazol-3-yl)-1,5-dihydro-4H-pyrazolo[4,3-c]pyridin-4-one]: the inhibition at 1 µM is 100% on JAK3, 99% on JAK2, 99% at TYK2 and 99% on JAK1.

As for `CC(C)[C@H](C)n1cc(-c2cc(N3CCCC3CN(C)C)n(C)n2)c2[nH]nc(N)c2c1=O` (stereo partly drawn) [Example 104, 3-amino-7-(5-(2-((dimethylamino)methyl)pyrrolidin-1-yl)-1-methyl-1H-pyrazol-3-yl)-5-((2S)-3-methylbutan-2-yl)-1,5-dihydro-4H-pyrazolo[4,3-c]pyridin-4-one], the “JAK3 enzyme inhibitory activity (%, 1 μM)” value at JAK3 (1 µM) is recorded as 98%. In addition, at JAK2 (1 µM), the “JAK2 enzyme inhibitory activity (%, 1 μM)” value was determined as 96%. The “TYK2 enzyme inhibitory activity (%, 1 μM)” value at TYK2 is on record as 100%. Moreover, the “JAK1 enzyme inhibitory activity (%, 1 μM)” value on JAK1 is given as 72%.

Take `Cn1nc(-c2cn(-c3c(F)cccc3C#N)c(=O)c3c(N)n[nH]c23)cc1N1CCOCC1` [Example 67, 2-(3-amino-7-(1-methyl-5-(morpholin-4-yl)-1H-pyrazol-3-yl)-4-oxo-1,4-dihydro-5H-pyrazolo[4,3-c]pyridin-5-yl)-3-fluorobenzonitrile]: the inhibition at 1 µM worked out at 99% on JAK3, 97% on JAK2, 100% on TYK2 and 98% on JAK1.

On to `CN(C)[C@H]1CCN(c2cc(-c3cn(-c4c(F)cccc4F)c(=O)c4c(N)n[nH]c34)nn2C)C1` [Example 140, 3-amino-5-(2,6-difluorophenyl)-7-(5-((3S)-3-(dimethylamino)pyrrolidin-1-yl)-1-methyl-1H-pyrazol-3-yl)-1,5-dihydro-4H-pyrazolo[4,3-c]pyridin-4-one], for which the inhibition at 1 µM came out at 100% at JAK3, 99% on JAK2, 99% at TYK2 and 98% at JAK1.

Regarding `Cn1nc(-c2cn(C3CCCC3(C)C)c(=O)c3c(N)n[nH]c23)cc1N1CCOCC1` (racemic) [Example 73, 3-amino-5-(2,2-dimethylcyclopentyl)-7-(1-methyl-5-(morpholin-4-yl)-1H-pyrazol-3-yl)-1,5-dihydro-4H-pyrazolo[4,3-c]pyridin-4-one], the inhibition at 1 µM at JAK3 worked out at 100%; at JAK2, 99%; on TYK2, 100%; on JAK1, 99%.

As for `CC(C)[C@H](C)n1cc(-c2cc(N3CCC[C@H]3CO)n(C)n2)c2[nH]nc(N)c2c1=O` [Example 20, 3-amino-7-(5-((2S)-2-(hydroxymethyl)pyrrolidin-1-yl)-1-methyl-1H-pyrazol-3-yl)-5-((2S)-3-methylbutan-2-yl)-1,5-dihydro-4H-pyrazolo[4,3-c]pyridin-4-one], the inhibition at 1 µM was found to be 100% on JAK3, 98% on JAK2, 99% on TYK2 and 95% on JAK1.

For the origin of these results see patent US9637483B2, “Heterocyclic compound” (TAKEDA PHARMACEUTICAL COMPANY LIMITED, priority 2013, dated 2017).
